Data set [1] relates to HK-2. Nature of the data set: Anti-proliferative activity, CellTiter-Glo, 72 hours: HK-2. It counts as cell-based, human. The conditions noted are these: Homo sapiens, HK-2 (kidney epilithial), Cell-Titre-Glo. Here is the method:
(§1) Anti-proliferative activity of BTM compounds. The anti-proliferative activities of Compound A197 and Compound B19 were compared to 4EGI-1 (a known cancer cell growth inhibitor) in a panel of 99 tumor lines. Methods: A panel of 96 tumor and 3 normal cell lines were tested for sensitivity to the test compound. The cell lines were cultured in standard media and pipetted into 96-well plates at the required plating densities. The cells were acclimated for 24 hours prior to compound testing. Compound was prepared as a stock of 20 mM in DMSO. To prepare dose response curves compound was serially diluted in DMSO and dispensed into the plate wells using a Tecan D300e digital dispenser. The final DMSO concentration was 0.15%. After 72 hours of incubation cell number was determined using the CellTiter-Glo® protocol according to the manufacturers instructions (Promega). In this assay, ATP is measured as a surrogate of cell number. The activity of the compound is determined by comparing untreated cells with treated cells and calculating the % of signal retained. Compound activity is measured as an EC50 of maximum level of efficacy and the two are used to compute an activity area. The table below provides a comparison of activity in a data sample.
In general terms: ATP-based viability assays read luminescence as a measure of living cells.

Data set [2] relates to NCI-H460. Nature of the data set: Anti-proliferative activity, CellTiter-Glo, 72 hours: NCI-H460. Conditions: Homo sapiens, NCI-H460 (non-small cell lung cancer), Cell-Titre-Glo. It counts as cell-based, human. The protocol: as §1
Data set [3] has as its system SU-DHL-4. Description: Anti-proliferative activity, CellTiter-Glo, 72 hours: SU-DHL-4. It counts as cell-based, human. The conditions noted are these: Homo sapiens, SU-DHL-4 (B-cell lymphoma), Cell-Titre-Glo. Here is the method: as §1
Data set [4] deals with MIA PaCa-2. Nature of the data set: Anti-proliferative activity, CellTiter-Glo, 72 hours: MIA PaCa-2. It counts as cell-based, human. The conditions noted are these: Homo sapiens, MIA PaCa-2 (pancreactic cancer (carcinoma)), Cell-Titre-Glo. The protocol:
as §1

In data set [5] the test system is panel of 96 tumor and 3 normal cell lines. Description: Anti-proliferative activity in a panel of 99 cell lines, CellTiter-Glo, 72 hours. Type of data set: cell-based, human. The conditions noted are these: for IC50: Homo sapiens, in responsive cell lines, read-out: activity range; for % of hematopoietic tumor lines being responsive / % of solid tumor lines being responsive: IC50<2 μM; for active in % of the tested cell lines (IC50<2 μM): all tested cell lines; for % of NSCLC tumor lines responsive / % of colorectal tumor lines responsive / % of sarcoma tumor lines responsive: among solid tumor lines; for activity in primary diploid cell lines: e.g. human umbilical vein endothelial cells and normal human lung fibroblasts (NHLF). Here is the method: as §1

In data set [6] the test system is A549. Nature of the data set: Anti-proliferative activity, CellTiter-Glo, 72 hours: A549. It counts as cell-based, human. The conditions noted are these: Homo sapiens, A549 (non-small cell lung cancer), Cell-Titre-Glo. The protocol:
as §1

In data set [7] the test system is HT-1080. Description: Anti-proliferative activity, CellTiter-Glo, 72 hours: HT-1080. Conditions: Homo sapiens, HT-1080 (fibrosarcoma), Cell-Titre-Glo. It counts as cell-based, human. The protocol: as §1
For data set [8], the system named is SK-MEL-28. Nature of the data set: Anti-proliferative activity, CellTiter-Glo, 72 hours: SK-MEL-28. The conditions noted are these: Homo sapiens, SK-MEL-28 (melanoma), Cell-Titre-Glo. It counts as cell-based, human. Here is the method: as §1
Data set [9] has as its system NHLF. Nature of the data set: Anti-proliferative activity, CellTiter-Glo, 72 hours: NHLF. The conditions noted are these: NHLF (human lung fibroblast), Cell-Titre-Glo. It counts as cell-based. The protocol:
as §1

Data set [10] is described as follows: Single rising-dose mouse pharmacokinetics (PK) experiment. Type of data set: in vivo, CD-1 mice. Conditions: for PK properties: mouse PK data. The protocol: FIG. 9 is a graph of mouse pharmacokinetics of a single rising dose PK of Compound A197 in female CD-1 mice. Compound was administered orally with the indicated dose. Blood was drawn by tail-bleed at the appropriate times and Compound A197 plasma levels determined by LC-MS. All values, mean±SD (n=3 mice per group).
A single rising-dose mouse pharmacokinetics (PK) experiment was performed at PGP-52 TI 10, 20, 40, 150 and 300 mg/kg Compound A197. Female CD-1 mice (20-30 grams in weight) were dosed by oral gavage or by intravenous injection with A197 dissolved in 1% NMP, 0.3% Tween-80 in 0.5% methylcellulose at a dose volume of 10 ml/kg. Following compound dosing, blood was collected by tail vein bleed into K2EDTA tubes at 30 minutes, 1, 3, 5, 7, 24 an 48 hrs following dosing. Plasma (5 μL) from A197 dosed animals was acidified with […] and 1% ammonium formate in methanol to precipitate protein and delipidate plasma. The material was centrifuged at 1000× and a 120 μL sample of the supernatant was then dried under vacuum. The deproteinated and delipidated residue was resuspended in 200 μL of 1% ammonium formate in methanol and the centrifugation and drying process repeated. The dried material is then resuspended in 100 μL of a mixture of 2 parts methanol: 1 part acetonitrile: 1 part water. A 10 μL sample of this material is then injected onto a Xbridge C18 2.5 μM, 3×30 mm, XP column attached to a TSQ Vantage LC/MS system for quantitation.

In data set [11] the test system is JHH-6. Nature of the data set: Cell viability, CellTiter-Glo, 96 h: JHH-6. Type of data set: cell-based. The conditions noted are these: for IC50: read-out: Absolute IC50. Here is the method:
(§2) Viability was determined by using the 50% inhibitory concentration (IC50) as determined with the CellTiter-Glo® Viability Assay (Promega). All cells were cultured under standard conditions in media supplemented with 10-15% Fetal Bovine Serum, at a temperature of 37° C., 5% CO2 and 95% humidity.
(§3) Cells were harvested during the logarithmic growth period, counted, and the cell concentration adjusted to 4.44×10^4 cells/mL using culture medium. A final cell density of 4×10^3 cells/well was added in a 90 μL cell suspension to plates A and B as shown.
(§4) Test plate B was incubated for 96 h in the humidified incubator at 37° C. with 5% CO2.
(§5) Following the incubation, the plate was equilibrated at room temperature for thirty minutes. CellTiter-Glo® (50 μL) was added to each well of the plate and contents mixed for five minutes on an orbital shaker to induce cell lysis. The luminescent signal was allowed to stabilize at room temperature for 20 minutes and the luminescence recorded.
(§6) IC50 (EC50) was calculated using a dose-response curve, fitted using a nonlinear regression model with a sigmoidal dose response. Survival rate was calculated using the formula:
(§7) The Surviving rate (%)=(LumTest article−LumMedium control)/(LumNon-treated−LumMedium control)×100%.
(§8) Absolute IC50 (EC50) was calculated according to the dose-response curve generated by the statistical software (GraphPad Prism 5.0).

For data set [12], the system named is 8305C. Description: Cell viability, CellTiter-Glo, 96 h: 8305C. Type of data set: cell-based. Conditions: for IC50: read-out: Absolute IC50. The protocol:
as §2, §3, §4, §5, §6, §7, §8

Data set [13] relates to LS 174T. Description: Cell viability, CellTiter-Glo, 96 h: LS 174T. It counts as cell-based. Here is the method: as §2, §3, §4, §5, §6, §7, §8
For data set [14], the system named is 143B. Description: Cell viability, CellTiter-Glo, 96 h: 143B. Type of data set: cell-based. Conditions: for IC50: read-out: Absolute IC50. The protocol: as §2, §3, §4, §5, §6, §7, §8
For data set [15], the system named is HUH-6 CLONE5. Description: Cell viability, CellTiter-Glo, 96 h: HUH-6 CLONE5. Type of data set: cell-based. Conditions: for IC50: read-out: Absolute IC50. The protocol: as §2, §3, §4, §5, §6, §7, §8
The subject of data set [16] is D283 Med. Description: Cell viability, CellTiter-Glo, 96 h: D283 Med. Type of data set: cell-based. The conditions noted are these: for IC50: read-out: Absolute IC50. The protocol: as §2, §3, §4, §5, §6, §7, §8
[17] abbreviates: Cell No. 407, read-out: Absolute IC50.

Read-outs that look alike come from different tables or passages of the source.

The term % inhibition denotes the percentage by which the read-out fell short of the control. A high value points to a strong effect.

With `COC(=O)c1c(-c2cccc(F)c2)c(C)nn1-c1nc(C2=CCC(C(F)(F)F)CC2)c(SC(C)C)s1` (single isomer, unassigned) [Compound B19, methyl 4-(3-fluorophenyl)-1-(5-(isopropylthio)-4-(4-(trifluoromethyl)cyclohex-1-en-1-yl)thiazol-2-yl)-3-methyl-1H-pyrazole-5-carboxylate], the IC50 in [1] is greater than 30 µM; in data set [2] it was 167 nM; in data set [3] it was 360 nM; in data set [4], 447 nM; in data set [5] it was 100 to 2000 nM; in data set [6], 189 nM. In addition, the IC50 is 528 nM in data set [7], greater than 30 µM in data set [8] and greater than 30 µM in data set [9]. Moreover, the “% of hematopoietic tumor lines being responsive” value in data set [5] is 90%. Besides, the “% of solid tumor lines being responsive” value in [5] is given as 28%. Further, the “active in % of the tested cell lines (IC50<2 μM)” value in data set [5] stood at 40%. The “% of NSCLC tumor lines responsive” value in data set [5] is reported as 80%. In addition, the “% of colorectal tumor lines responsive” value in data set [5] stood at 37%. In [5], the “% of sarcoma tumor lines responsive” value is reported as 40%. Moreover, in data set [5], the “activity in primary diploid cell lines” value is on record as “tested negative”. Besides, the PK properties result in data set [10] is recorded as “drug-like PK properties suitable for once daily dosing”.

As to `N.N.[Cl][Pt][Cl]` [Cisplatin, reference compound], the “% inhibition at top conc.” value in data set [11] is listed as 95.32%; in data set [12], 99.17%; in data set [13] (Cell No. 406), 96.60%; in [13] (Cell No. 407), 96.74%; in data set [14] it was 99.94%; in data set [15], 99.43%. The “% inhibition at top conc.” value in data set [16] is listed as 99.39%. Further, the IC50 stood at 3.12 µM in data set [11]; 6.14 µM in [12]; 5.89 µM in data set [13] (Cell No. 406, read-out: Absolute IC50); 8.54 µM in data set [13] (setting [17]); 3.2 µM in data set [14]; 6.33 µM in data set [15]. Also, the IC50 in data set [16] was found to be 700 nM.

In the case of `Cc1nn(-c2nc(-c3ccc(C(F)(F)F)cc3)c(SC(C)C)s2)c(C(=O)O)c1-c1cccc(F)c1` [Compound A197, 4-(3-fluorophenyl)-1-(5-(isopropylthio)-4-(4-(trifluoromethyl)phenyl)thiazol-2-yl)-3-methyl-1H-pyrazole-5-carboxylic acid], the IC50 in data set [1] is greater than 30 µM; in data set [11], greater than 30 µM; in data set [12] (Homo sapiens), greater than 30 µM; in data set [2], 156 nM; in [13] (setting [17]), greater than 30 µM; in data set [13] (Homo sapiens, LS174T, Cell No. 406, read-out: Absolute IC50), greater than 30 µM. The IC50 in [3] is 288 nM; in data set [4] it was 623 nM; in data set [5], 100 to 2000 nM; in data set [6] it was 312 nM; in data set [7] it was 725 nM; in data set [8] it was greater than 30 µM. For the same compound, the IC50 in data set [9] was greater than 30 µM; in data set [14] (Homo sapiens), greater than 30 µM; in data set [15], greater than 30 µM; in [16] (Homo sapiens), greater than 30000 nM. The “% inhibition at top conc.” value is 45.19% in data set [11]; 33.79% in data set [12]; 15.79% in data set [13] (Cell No. 406); 27.00% in data set [13] (Cell No. 407); 27.55% in data set [14]; 11.18% in data set [15]. Also, in data set [16], the “% inhibition at top conc.” value came out at 66.67%. The “% of hematopoietic tumor lines being responsive” value in data set [5] is 90%. Moreover, the “% of solid tumor lines being responsive” value in [5] worked out at 28%. In addition, the “active in % of the tested cell lines (IC50<2 μM)” value in data set [5] stood at 40%. In addition, the “% of NSCLC tumor lines responsive” value in [5] is given as 80%. In addition, the “% of colorectal tumor lines responsive” value in data set [5] is on record as 37%. In [5], the “% of sarcoma tumor lines responsive” value is reported as 40%. For the same compound, in data set [5], the “activity in primary diploid cell lines” value is on record as “tested negative”. Further, in [10], the PK properties result is on record as “drug-like PK properties suitable for once daily dosing”. In addition, the dose proportionality entry in [10] (single rising dose 10, 20, 40, 150 and 300 mg/kg, oral, female CD-1 mice, plasma by LC/MS) is reported as “dose proportionality was observed up to 300 mg/kg”.

For the origin of these results see US20210278408A1, “METHODS OF TREATMENT OF CANCER WITH SUBSTITUTED PYRROLE AND PYRAZOLE COMPOUNDS AND DIAGNOSIS OF CANCERS SUSCEPTIBLE TO TREATMENT WITH SUBSTITUTED PYRROLE AND PYRAZOLE COMPOUNDS” (Bantam Pharmaceutical, LLC, priority 2018, published 2021).
